# From US10487089B2, “Imaging agents and methods of identifying same” (The Trustees of the University of Pennsylvania, priority 2014, dated 2019)
# Entries after “also recorded” stand apart in the source; their conditions may differ.
# Key:
# [1] = Photophysical properties (absorption, emission, extinction coefficient, quantum yield); assay type: physicochemical
# Source text: n-Butyllithium in hexanes was purchased from Acros and titrated with diphenylacetic acid, which was recrystallized from toluene. All other reagents were purchased from Sigma Aldrich and used without further purification. Solvents were purchased from either Sigma Aldrich or Fisher Scientific. Anhydrous solvents were purchased from Fisher Scientific and dried by passing through an alumina column of a solvent purification system. Silica gel (230-400 mesh) used for column chromatography was purchased from Silicycle. Thin layer chromatography plates (250 μm thickness) were purchased from Sorbent Technologies. Revered-phase column chromatography was done using a RediSep Rf Gold C18 column on a Teledyne Isco CombiFlash Rf system. High-performance liquid chromatography (HPLC) was performed on a Jasco HPLC system using a Phenomenex column (Luna 5u C18(2) 100A; 250×4.60 mm, 5 micron). UV absorption spectra were obtained on a Jasco V-650 spectrophotometer using a 1 cm path length quartz cuvette. Fluorescence emission spectra were taken on a Horiba Jobin-Yvon FluoroLog using a 1 cm path length fluorescence quartz cuvette. ^1H-NMR and ^13C-NMR were recorded on either a Bruker DMX 500 (500 MHz) or a Bruker AVII 500 (500 MHz). High-resolution mass spectrometry was performed using a Waters LCT Premier XE Mass Spectrometer (model KE 332). […] was performed using a Bruker APEX2-DUO CCD X-ray Diffractometer. Photoreactions were carried out in a Rayonet Photochemical Reactor (model RPR-100). Quantum yield was determined by serial dilution method using coumarine 153 (in ethanol, Φ=0.38) and fluorescein (in NaOH 0.1 M, Φ=0.95) as standards (Yvon, A guide to recording Fluorescence Quantum Yields, http://www.horiba.com/fileadmin/uploads/Scientific/Documents/Fluorescence/quantumyie ldstrad.pdf, accessed Jul. 13, 2014; Brouwer, 2011, Pure Appl. Chem. 83: 2213-2228)
# [2] = system: HeLa cells; experiment: Toxicity to HeLa cells on a 24 h timescale (live-cell imaging)
# [3] = Solubility (DMSO, water)
# Source text: Water solubility would then be evaluated first by simply doing an aqueous extraction.
# [4] = system: HeLa cells; experiment: Confocal microscopy of stained live HeLa cells (subcellular localization, cell permeability); settings: for staining specificity / subcellular localization: confocal microscopy
# Source text: Confocal microscopy was done on a Yokogawa spinning disk inverted microscope with a 100× lens. Each batch of stained cells was imaged by exciting with a 488 nm laser while observing at 503-545 nm (the green overlay images), exciting with a 561 nm laser while observing at 583-650 nm (the red overlay images), and by DIC (the grey images) (FIG. 8).
# A 444 nm excitation was required to image with compounds 2 and 3 (FIG. 18).
# [5] = system: HeLa cells; experiment: One-hundred-time-point timelapse microscopy (photostability / resistance to photobleaching); assay type: cell-based; settings: for photostability compared with commercial dyes: vs Lysotracker Red / Mitotracker Red, 100 laser pulses of 300 ms; for loss of intensity over 100 scans: 100 pulses of 300 ms, maximum intensity of the image tracked
# Experimental: One-hundred-time-point microscopy experiments were performed to evaluate photostability and/or resistance to photobleaching in comparison with the commercial dyes of lysotracker and mitotracker. […] For these experiments, each sample was pulsed 100 times for 300 ms and the maximum intensity of the image was tracked over time. […] Mitotracker was more robust than lysotracker, losing only 34% of its intensity over the 100 scans, while compound 3 lost only ˜13%. The most robust dye discovered thus far is monomethylated-3 (Me-3), which lost only ˜5% of its intensity over 100 scans.
# This was determined via one-hundred-time-point timelapse microscopy experiments in which the […] intensity of the image was monitored over 100 laser pulses of 300 ms (FIG. 42).
# To investigate photostability of 2 and 3, timelapse microscopy experiments were carried out.
# [6] = system: mitochondria of HeLa cells; experiment: Co-staining with mitotracker red, Pearson colocalization correlation; assay type: cell-based
# Experimental: (§1) Pearson correlations were done after co-staining with mitotracker or lysotracker to evaluate specificity.
# (§2) Confirmation of the supposed lysosome and mitochondria staining was achieved by doing co-staining experiments with Lysotacker Red™ and Mitortracker Red™, respectively. A Pearson colocalization correlation (PCC) of 0.75 was determined from a costaining experiments in which HeLa cells were incubated with E/Z-2 and Lysotracker. The imperfect correlation is due to higher specificity for a subset of vesicles stained by the Lysotracker.
# [7] = system: lysosomes of HeLa cells; experiment: Co-staining with lysotracker red, Pearson colocalization correlation; assay type: cell-based
# Experimental: as §1, §2
Structure (SMILES),cell permeability [4],loss of intensity over 100 scans [5] [%],toxicity to HeLa cells [2],staining specificity / subcellular localization [4],further results
C[n+]1cccc2oc3cccc4c5cccc6oc7cccnc7c(c65)c(c34)c21 [Compound 12],,,,,Stokes shift [1]: 108 nm; Abs λmax ([1]; in water): 504 nm; Em λmax ([1]; in water): 612 nm; extinction coefficient ε ([1]; solvent: water): 11496 M⁻¹ cm⁻¹; quantum yield Φ ([1]; solvent: water): 0.100
C[n+]1ccc2c(c1)Oc1ccccc1/C2=C1/c2ccccc2Oc2c[n+](C)ccc21 [E/Z-6],,,,stains lysosomes,
"c1ccc2c(c1)oc1cncc3c4cccc5oc6cnccc6c(c54)c2c13 [Compound 2, chromeno[2,3,4-de]pyrido[3′,4′:2,3]chromeno[4,5-gh]isoquinoline;2,9-diaza-benzo[1,2,3-kl:6,5,4-k′l′]dixanthene]",cell permeable; also recorded: cell-permeable,,non-toxic,staining mitochondria; also recorded: selectively stain mitochondria rather than the nucleus; also recorded: mitochondria-specific dyes; also recorded: localize primarily in the mitochondria; also recorded: stains mitochondria and additional structures,"decrease in intensity after 100 scans ([5]; 300 ms/scan, HeLa cells): only a slight decrease in intensity; photostability compared with commercial dyes [5]: superior; Pearson correlation with mitotracker red [6]: 0.75"
"c1ccc2c(c1)Oc1cnccc1/C2=C1\c2ccccc2Oc2cnccc21 (racemic) [E/Z-1, 3,3′-diazaxanthylidene]",,,,,solubility in DMSO ([3]; DMSO): poor solubility
"C[n+]1ccc2c(c1)oc1cccc3c4c[n+](C)cc5oc6ccccc6c(c54)c2c13 [DiMe-2, 2,9-dimethylchromeno[2,3,4-de]pyrido[3′,4′:2,3]chromeno[4,5-gh]isoquinoline-2,9-diium]",cell permeable,,non-toxic,specific for punctuate organelles; also recorded: lysosomal subcellular specificity,water solubility [3]: water-solubility
"C[n+]1ccc2c(c1)oc1cccc3c4cccc5oc6cnccc6c(c54)c2c13 [Me-3, 9-Me-9,14-diaza-benzo[1,2,3-kl:6,5,4-k′l′]dixanthene]",,~5,,,Pearson correlation with lysotracker red [7]: 0.25

# More lines, main results first:
cell permeability [4],loss of intensity over 100 scans [5] [%],Structure (SMILES),toxicity to HeLa cells [2],staining specificity / subcellular localization [4],further results
cell permeable,,"C[n+]1ccc2c(c1)Oc1ccccc1/C2=C1/c2ccccc2Oc2c[n+](C)ccc21 [DiMe-E-1, (E)-3,3′-dimethyl-[5,5′-bichromeno[2,3-c]pyridinylidene]-3,3′-diium]",non-toxic,specific for punctuate organelles; also recorded: lysosomal subcellular specificity,water solubility [3]: water-solubility; photostability compared with commercial dyes [5]: superior
,34,"ClCc1ccc(C2=c3cc4c5c(c3Oc3c2cc2c6c3CCCN6CCC2)CCC[N+]=5CCC4)cc1.[Cl-] [Mitotracker, reference compound]",,,
,~30,"C[n+]1ccc2c(c1)Oc1ccccc1/C2=C1/c2ccccc2Oc2cnccc21 [Me-E-1, (E)-2-methyl-[5,5′-bichromeno[2,3-c]pyridinylidene]-2-ium]",,lysosome-specific stain,"Pearson correlation with lysotracker red [7]: 0.75; staining specificity / subcellular localization ([4]; listed as Me-1): lysosome-specific stain; staining specificity / subcellular localization ([4]; listed as monomethylated 3,3′-DAXAZ): good lysosomal stain"
cell permeable,,"C[n+]1ccc2c(c1)Oc1ccccc1/C2=C1\c2ccccc2Oc2c[n+](C)ccc21 [DiMe-Z-1, (Z)-N, N′-dimethyl-3,3′-diazaxanthylidene]",non-toxic,specific for punctuate organelles; also recorded: lysosomal subcellular specificity,water solubility [3]: water-solubility; photostability compared with commercial dyes [5]: superior
,80,"CN(C)CCNC(=O)CCc1ccc2n1[B-](F)(F)[N+]1=C(c3ccc[nH]3)C=CC1=C2 [lysotracker, reference compound]",,,
